Data: patent US8802634B2, “CD40-L Inhibitory Peptides” (Phylogica Limited, priority 2008, dated 2014)

Experiments:
[1] = tested on: T cells from transgenic D011.10 mice; test: Antigen-specific T-cell proliferation assay; type: cell-based; conditions: 10 μM or 20 μM peptide
Method: Briefly, pooled DLN (consisting parathymic and posterior mediastinal nodes) were collected from transgenic D011.10 mice engineered to express ovalbumin-specific T cell receptors (TCRs). Enriched T-cell suspensions were prepared and stimulated with 10 μg/ml ovalbumin in the presence or absence of 10 μM or 20 μM concentration of anti-CD40L peptidyl inhibitors. The peptides tested were PEGylated serine derivatives and/or chiral analogs of peptides CD40L M1—6, CD40L M1—9, CD40L M1—18, CD40L M1—30, CD40L M1—42, CD40L M1—50, CD40L M7—82 and CD40L M7—206. Cells were cultured for 24-72 hrs and then pulsed with [^3H]thymidine for another 24 hr to measure T-cell proliferation.

[2] = molecular target: T1, CD40L (Homo sapiens, UniProt P29965); test: Octet Red label-free association/dissociation analysis; type: binding; conditions: versus CD40L M1—206
T1 construct: measures of the “on” and “off” rates of the peptides relative to soluble CD40L
T1 sequence (P29965 113-261 limits assumed): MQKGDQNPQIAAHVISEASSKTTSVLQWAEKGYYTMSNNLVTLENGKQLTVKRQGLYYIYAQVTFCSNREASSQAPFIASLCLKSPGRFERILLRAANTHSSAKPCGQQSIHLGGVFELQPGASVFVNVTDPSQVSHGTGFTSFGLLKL
Method: Label-free analyses of the associations and dissociations of base peptides and serine derivatives of base peptides with the CD40L target protein were performed using the Octet Red system (ForteBio, Inc., USA) according to the manufacturer's instructions. These analyses provide kinetic constants of CD40L binding activity, especially the association rate constant (Ka) and dissociation rate constant (Kd) of binding, i.e., measures of the “on” and “off” rates of the peptides relative to soluble CD40L.

Sequence | relative performance in T-cell proliferation assay [1] | fold higher affinity for CD40L than base monomeric peptide [2] [fold]
AQWWHHRFSFLGAIQFFERGAAD [CD40L M1_30rd] | best-performing | –
PFTWRPTIFWIIQLIVYMRHFGGGGSRSELLRENICRYVSLFDHPLQRNTPLDELRFVIFDTETSGFDLVKDRILSIR [CD40L D1_0014] | – | 6
SKVRMQFDIINFPVNVGFLVFSH [CD40L M1_42rd] | best-performing | –
